Here are results for 18 molecules from patent US20100248390A1, “COMPOSITIONS AND METHODS FOR IDENTIFYING LIGANDS OF ODORANT RECEPTORS” (DUKE UNIVERSITY, priority 2009, published 2010).

Where two headings read alike, the source gives them in different places.

In general, EC50 refers to the midpoint of the concentration-response curve.

Experiment [1] addresses T1, human odorant receptors (ORs) (Homo sapiens, UniProt Q9P1Q5).
T1 construct: OR open reading frames were amplified from genomic DNA; expressed in transfected cells; host or cells: Hana3A cells, co-transfected with RTP1S, CRE-luciferase and pRL-SV40
T1 sequence (Q9P1Q5 1-309): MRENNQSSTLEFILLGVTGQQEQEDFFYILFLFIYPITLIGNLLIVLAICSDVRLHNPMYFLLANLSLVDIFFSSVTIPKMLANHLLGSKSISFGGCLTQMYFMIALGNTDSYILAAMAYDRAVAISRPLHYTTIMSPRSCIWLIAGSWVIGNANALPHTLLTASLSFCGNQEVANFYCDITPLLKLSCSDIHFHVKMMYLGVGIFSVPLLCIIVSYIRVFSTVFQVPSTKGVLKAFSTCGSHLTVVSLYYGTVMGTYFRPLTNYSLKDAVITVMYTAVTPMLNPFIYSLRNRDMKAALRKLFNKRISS
As to the kind of experiment: CRE-luciferase assay of odorant receptor activation (Dual-Glo, Hana3A cells, RTP1S), dose-response EC50. Format: cell-based. The gist of the method:
(§1)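 Hana3A cells were co-transfected with Rho-tagged OR, RTP1S, CRE-luciferase and pRL-SV40, then exposed to odorant in CD293 medium for 4 hrs at 37° C. Firefly luminescence was divided by Renilla and normalized as (LN−Lmin)/(Lmax−Lmin) per plate set. Each dose was tested at least three times, and EC50 came from sigmoidal fits.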

The target in experiment [2] is T2, human odorant receptors (ORs) (Homo sapiens, UniProt Q9Y3N9).
T2 construct: OR open reading frames were amplified from genomic DNA; expressed in transfected cells; host or cells: Hana3A cells, co-transfected with RTP1S, CRE-luciferase and pRL-SV40
T2 sequence (Q9Y3N9 1-320): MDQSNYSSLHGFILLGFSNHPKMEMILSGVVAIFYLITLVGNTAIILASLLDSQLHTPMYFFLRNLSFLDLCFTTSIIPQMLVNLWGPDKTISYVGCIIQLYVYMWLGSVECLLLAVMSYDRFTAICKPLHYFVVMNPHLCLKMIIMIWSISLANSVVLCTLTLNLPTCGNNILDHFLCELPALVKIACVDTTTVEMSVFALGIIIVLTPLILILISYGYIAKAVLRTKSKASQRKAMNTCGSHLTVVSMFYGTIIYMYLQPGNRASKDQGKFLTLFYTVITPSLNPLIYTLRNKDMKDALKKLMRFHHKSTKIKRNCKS
The experiment is described as above. Format: cell-based. The gist of the method: as §1

Where [3] appears, read: receptor OR1A1, 0 = no response.
Where [4] appears, read: receptor OR2W1, 0 = no response.
[5] abbreviates: receptor OR2W1, read-out: log EC50 of odorant at OR2W1 (0 = no response) (converted).
Setting [6] is: receptor OR2W1, read-out: log EC50 (Table 4 value), OR2W1 (converted).
The mark [7] stands for this setting: receptor OR1A1, read-out: log EC50 (Table 4 value), OR1A1 (converted).
Setting [8] is: receptor OR1A1, read-out: log EC50 of odorant at OR1A1 (0 = no response) (converted).
Where [9] appears, read: receptor OR1A1, 0 = no response, read-out: log EC50, OR1A1 (converted).
The mark [10] stands for this setting: receptor OR2W1, 0 = no response, read-out: log EC50, OR2W1 (converted).

For the molecule `C=C(C)[C@@H]1CC[C@@H](C)C(=O)C1` [(+)-Dihydrocarvone], the “log EC50, OR1A1” value in experiment [1] (setting [3]) is reported as −4.992. Besides, in experiment [2] (setting [4]), the “log EC50, OR2W1” value is −4.755.

On to `CCCCCCCCC(=O)O` [Nonanoic acid], for which the EC50 in experiment [2] (setting [5]) was 189 µM.

In the case of `CC(=O)Oc1ccccc1` [Phenyl acetate], in experiment [2] (setting [5]), the EC50 was 84.9 µM.

On to `CC(=O)c1ccccc1` [Acetophenone], for which, in experiment [2] (setting [6]), the EC50 is 42.5 µM.

In the case of `O=C1CCOc2ccccc21` [4-Chromanone], the EC50 in experiment [1] (setting [7]) is 462 µM; in experiment [2] (setting [6]), 91 µM.

As to `CCCCCCCCCCO` [1-Decanol], the values for the EC50 in experiment [1] and in experiment [2] were 828 µM and 43.2 µM, respectively.

Turning to `CCCCCCCC(=O)O` [Octanoic Acid], the EC50 in experiment [2] (setting [5]) was 14.2 µM.

In the case of `C=CCOC(=O)Cc1ccccc1` [Allyl phenylacetate], the EC50 in experiment [1] is 7.6 µM; in experiment [2], 15.4 µM.

For `CCCCCCCCS` [Octanethiol], the EC50 in experiment [1] (setting [8]) was 594 µM; in experiment [2] (setting [5]), 92.7 µM.

Consider `CCCCCCCO` [1-Heptanol], for which the EC50 is 971 µM in experiment [1] (setting [9]) and 14.8 µM in experiment [2] (setting [10]).

Regarding `C=C(C)C1CC=C(C)C(=O)C1` (single isomer, unassigned; (-)) [(−)-Carvone], the “log EC50, OR1A1” value in experiment [1] (setting [3]) was −5.765. The “log EC50, OR2W1” value in experiment [2] (setting [4]) is reported as −4.657.

For the molecule `CC(=O)OCc1ccccc1` [Benzyl acetate], the values for the EC50 in experiment [1] (setting [7]) and in experiment [2] (setting [6]) were 406 µM and 16.4 µM, respectively.

For the molecule `O=c1ccc2ccccc2o1` [Coumarin], the EC50 in experiment [2] (setting [6]) was 86.1 µM.

As for `C=C(C)[C@H]1CC=C(C)C(=O)C1` [(+)-Carvone], the “log EC50, OR1A1” value in experiment [1] (setting [3]) is on record as −5.035. Also, in experiment [2] (setting [4]), the “log EC50, OR2W1” value is on record as −4.646.

`CC(C)=CCCC(C)CCO` (single isomer, unassigned; (-)) [(−)-b-C ? inedol]: the EC50 in experiment [1] (setting [9]) is 91.4 µM; in experiment [2] (setting [10]), 7.8 µM.

Take `CCCCCCCCCS` [Nonanethiol]: the concentration giving a half-maximal response (EC50) is 571 µM in experiment [1] (setting [8]) and 86.1 µM in experiment [2] (setting [5]).

`CCCCCC1=C(C)CCC1=O` [Dihydroiasmone]: the “log EC50 (Table 4 value), OR1A1” value in experiment [1] (receptor OR1A1) is listed as −7.242. The “log EC50 (Table 4 value), OR2W1” value in experiment [2] (receptor OR2W1) was −4.246.

As for `CC(C)=CCC/C(C)=C/CO` [Getaniol], the EC50 in experiment [1] (setting [7]) was 341 µM; in experiment [2] (setting [6]) it was 18.4 µM.
